Laboratory results as given in PubChem BioAssay (NCI).
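Following 48 hours of exposure in 96-well plates, responses at five concentrations were used to interpolate endpoints linearly. TGI is the concentration that stops growth completely.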

Legend:
Assay in all cases: NCI tumour cell line growth inhibition, 48 h
XF 498 CNS = tested on: XF 498 CNS
UO-31 renal = tested on: UO-31 renal
COLO 205 colon = tested on: COLO 205 colon
NCI-H522 lung = tested on: NCI-H522 lung
SN12C renal = tested on: SN12C renal
U251 CNS = tested on: U251 CNS
SNB-19 CNS = tested on: SNB-19 CNS
MDA-MB-231 breast = tested on: MDA-MB-231 breast
SF-268 CNS = tested on: SF-268 CNS
KM20L2 colon = tested on: KM20L2 colon
SW-620 colon = tested on: SW-620 colon
NCI/ADR-RES ovarian = tested on: NCI/ADR-RES ovarian
786-0 renal = tested on: 786-0 renal
HOP-18 NSCLC = tested on: HOP-18 NSCLC
CAKI-1 renal = tested on: CAKI-1 renal
P388/ADR leukemia = tested on: P388/ADR leukemia
SF-295 CNS = tested on: SF-295 CNS
OVCAR-4 ovarian = tested on: OVCAR-4 ovarian
T-47D breast = tested on: T-47D breast
DU-145 prostate = tested on: DU-145 prostate
UACC-62 melanoma = tested on: UACC-62 melanoma
HL-60(TB) leukemia = tested on: HL-60(TB) leukemia
DMS 114 small cell lung = tested on: DMS 114 small cell lung
SK-OV-3 ovarian = tested on: SK-OV-3 ovarian
KM12 colon = tested on: KM12 colon
SNB-78 CNS = tested on: SNB-78 CNS
TK-10 renal = tested on: TK-10 renal
A549 NSCLC = tested on: A549 NSCLC
MDA-N = tested on: MDA-N
K-562 leukemia = tested on: K-562 leukemia
P388 leukemia = tested on: P388 leukemia
MOLT-4 leukemia = tested on: MOLT-4 leukemia
IGROV1 ovarian = tested on: IGROV1 ovarian
BT-549 breast = tested on: BT-549 breast
UACC-257 melanoma = tested on: UACC-257 melanoma
PC-3 prostate = tested on: PC-3 prostate
DMS 273 small cell lung = tested on: DMS 273 small cell lung
M14 melanoma = tested on: M14 melanoma
EKVX NSCLC = tested on: EKVX NSCLC
RXF 393 renal = tested on: RXF 393 renal
MALME-3M melanoma = tested on: MALME-3M melanoma
HCC-2998 colon = tested on: HCC-2998 colon
LOX IMVI melanoma = tested on: LOX IMVI melanoma
HOP-62 NSCLC = tested on: HOP-62 NSCLC
HOP-92 NSCLC = tested on: HOP-92 NSCLC
SF-539 CNS = tested on: SF-539 CNS
DLD-1 colon = tested on: DLD-1 colon
NCI-H460 lung = tested on: NCI-H460 lung
SK-MEL-28 melanoma = tested on: SK-MEL-28 melanoma
CCRF-CEM leukemia = tested on: CCRF-CEM leukemia
SNB-75 CNS = tested on: SNB-75 CNS
SR leukemia = tested on: SR leukemia
SN12K1 renal = tested on: SN12K1 renal
OVCAR-8 ovarian = tested on: OVCAR-8 ovarian
SK-MEL-2 melanoma = tested on: SK-MEL-2 melanoma
MDA-MB-435 = tested on: MDA-MB-435
NCI-H226 lung = tested on: NCI-H226 lung
MCF7 breast = tested on: MCF7 breast
M19-MEL melanoma = tested on: M19-MEL melanoma
HCT-116 colon = tested on: HCT-116 colon
A498 renal = tested on: A498 renal
NCI-H23 lung = tested on: NCI-H23 lung
OVCAR-5 ovarian = tested on: OVCAR-5 ovarian
HT29 colon = tested on: HT29 colon
HS 578T breast = tested on: HS 578T breast
SK-MEL-5 melanoma = tested on: SK-MEL-5 melanoma
ACHN renal = tested on: ACHN renal
RPMI-8226 leukemia = tested on: RPMI-8226 leukemia
OVCAR-3 ovarian = tested on: OVCAR-3 ovarian
HCT-15 colon = tested on: HCT-15 colon

COc1cccc2c1C(=O)c1c(O)c3c(c(O)c1C2=O)C[C@@](O)(/C(C)=N/NC(=O)c1ccccc1)C[C@@H]3OC1CC(N)C(O)C(C)O1 (stereo not given in full)
TGI (XF 498 CNS): 0.242 µM | TGI (UO-31 renal): 8.69 µM | TGI (COLO 205 colon): 3.2 µM | TGI (NCI-H522 lung): 1.1 µM | TGI (SN12C renal): 5.7 µM | TGI (U251 CNS): 7.18 µM | TGI (SNB-19 CNS): 7.86 µM | TGI (MDA-MB-231 breast): 3.14 µM | TGI (SF-268 CNS): 3.35 µM | TGI (KM20L2 colon): 9.23 µM | TGI (SW-620 colon): 4.89 µM | TGI (NCI/ADR-RES ovarian): 76 µM | TGI (786-0 renal): 0.744 µM | TGI (HOP-18 NSCLC): 6.61 µM | TGI (CAKI-1 renal): 1.47 µM | TGI (P388/ADR leukemia): 35.6 µM | TGI (SF-295 CNS): 1.84 µM | TGI (OVCAR-4 ovarian): 7.74 µM | TGI (T-47D breast): 3.44 µM | TGI (DU-145 prostate): 0.903 µM | TGI (UACC-62 melanoma): 1.19 µM | TGI (HL-60(TB) leukemia): 0.771 µM | TGI (DMS 114 small cell lung): 1.11 µM | TGI (SK-OV-3 ovarian): 4.56 µM | TGI (KM12 colon): 6.64 µM | TGI (SNB-78 CNS): 6.1 µM | TGI (TK-10 renal): 5.85 µM | TGI (A549 NSCLC): 4.25 µM | TGI (MDA-N): 1.96 µM | TGI (K-562 leukemia): 4.25 µM | TGI (P388 leukemia): 1.61 µM | TGI (MOLT-4 leukemia): 0.681 µM | TGI (IGROV1 ovarian): 6.35 µM | TGI (BT-549 breast): 1.45 µM | TGI (UACC-257 melanoma): 3.51 µM | TGI (PC-3 prostate): 1.75 µM | TGI (DMS 273 small cell lung): 1.65 µM | TGI (M14 melanoma): 1.48 µM | TGI (EKVX NSCLC): 3.02 µM | TGI (RXF 393 renal): 1.28 µM | TGI (MALME-3M melanoma): 1.3 µM | TGI (HCC-2998 colon): 2.02 µM | TGI (LOX IMVI melanoma): 0.709 µM | TGI (HOP-62 NSCLC): 0.715 µM | TGI (HOP-92 NSCLC): 1.11 µM | TGI (SF-539 CNS): 1.58 µM | TGI (DLD-1 colon): 17.6 µM | TGI (NCI-H460 lung): 3.55 µM | TGI (SK-MEL-28 melanoma): 4.02 µM | TGI (CCRF-CEM leukemia): 3.19 µM | TGI (SNB-75 CNS): 1.97 µM | TGI (SR leukemia): 0.845 µM | TGI (SN12K1 renal): 1.88 µM | TGI (OVCAR-8 ovarian): 5.96 µM | TGI (SK-MEL-2 melanoma): 1.41 µM | TGI (MDA-MB-435): 2.15 µM | TGI (NCI-H226 lung): 0.786 µM | TGI (MCF7 breast): 2.93 µM | TGI (M19-MEL melanoma): 2.99 µM | TGI (HCT-116 colon): 10.2 µM | TGI (A498 renal): 3.42 µM | TGI (NCI-H23 lung): 1.54 µM | TGI (OVCAR-5 ovarian): 4.73 µM | TGI (HT29 colon): 6.04 µM | TGI (HS 578T breast): 1.82 µM | TGI (SK-MEL-5 melanoma): 0.74 µM | TGI (ACHN renal): 0.975 µM | TGI (RPMI-8226 leukemia): 3.85 µM | TGI (OVCAR-3 ovarian): 4.55 µM | TGI (HCT-15 colon): 19.9 µM
